Measured values reported in US10214515B2, “Substituted pyrazoles as inhibitors of fibroblast growth factor receptor” (Zhejiang Hisun Pharmaceutical Co., Ltd., priority 2015, dated 2019).
Like-named read-outs stand apart in the source and are kept apart here. Values belong to the molecule of their own block, whether it stands above or below them.

Key:
[1] = tested on: small cell lung cancer cells NCI-H1581; assay: Tumor cell proliferation, CCK-8 kit; assay type: cell-based; settings: Homo sapiens, 72 hours
[2] = tested on: human gastric cancer cells KATOIII; assay: Tumor cell proliferation, CCK-8 kit; assay type: cell-based; settings: KATO III, 72 hours
[3] = tested on: human gastric cancer cells SNU-16; assay: Tumor cell proliferation, CCK-8 kit; assay type: cell-based; settings: SNU-16 cells, 72 hours
[4] = tested on: small cell lung cancer cells DMS114; assay: Tumor cell proliferation, CCK-8 kit; assay type: cell-based; settings: Homo sapiens, DMS-114, 72 hours
[5] = tested on: human bladder transplanted cell carcinoma cell SW780; assay: cells; settings: SW780, 72 h, read-out: IC50(nM)/SW780
Text: For the FGFR3 subtype, the human bladder transplanted cell carcinoma cell SW780 (purchased from the Chinese Academy of Sciences, Shanghai Institute of Life Sciences, Cell Resource Center) was used, and cultivated according to the corresponding conditions.
The experimental assay can be briefly described as follows: the tested compound was first dissolved in DMSO to prepare a stock solution, then it was subjected to gradient dilution with corresponding cell culture medium to prepare a test sample. The final concentration of the compound is in the range of 30 μM to 0.01 nM. The tumor cells in logarithmic growth phase were inoculated into 96-well cell culture plates at appropriate densities, after the cells were incubated overnight under the corresponding conditions, the tested compound samples were added and the cells were cultured for 72 hours. After completion of the culture, a suitable volume of CCK-8 test solution was added to each well and the cells were incubated at 37° C. for 1 to 4 hours. […] The percentage inhibition rate of the compound at each concentration point was calculated by comparing with the absorbance values of the control group, and then non-linear regression analysis was carried out using logarithmic concentration of the compounds-inhibition rates in the GraphPad Prism 5 software, to obtain the IC50 values for inhibiting cell proliferation of the compounds.

[6] = Pharmacokinetic tests on rats, intragastric, plasma LC/MS/MS; assay type: in vivo; settings: SD rats; for AUC(0-inf) / half-life / Cmax / MRT: male, rat, plasma, po; for AUC(0-inf): read-out: Curve area AUC0-∞; for half-life: read-out: Half-life period T½ (converted); for Cmax: read-out: Plasma concentration Cmax; for MRT: read-out: Residence time MRT
Protocol: SD rats were used as the test animals, and the compounds of Examples 12 and 17 were administrated intragastrically to the rats to determine the drug concentration in plasma at different points by LC/MS/MS method. The pharmacokinetic properties of the compounds of the present invention in rats were studied.
The compound of Example 12 (3.5 mg) was weighed, dissolved in 2.2 mL of ethanol, vortexed for 1 minute and sonicated for 1 minute, after that, dissolved in 3.3 mL of PEG400, vortexed for 1 minute and sonicated for 1 minute, and then added with 5.5 mL of deionized water, vortexed for 1 minute. The final concentration of the solution was 0.3 mg/mL, and it was a colorless clear liquid (the pH of the final solution was about 7).
The compound of Example 17 (7.12 mg) was weighed and 7.12 mL of 0.5% sodium carboxymethylcellulose (CMC-Na) (0.5% Tween-20, 0.9% BeOH) was added, vortexed for 3 minutes until a homogeneous suspension was formed;
6 healthy adult SD male rats, after an overnight fast, were administrated intragastrically at the dosage of 3 mg/kg and 5 mg/kg, respectively.
Blood samples were taken from laryngeal vein (0.15 mL), at pre administration and at 15 minutes, 30 minutes, 1 hour, 2 hours, 4 hours, 8 hours, 12 hours, 24 hours, 36 hours and 48 hours post administration, and the samples were stored in heparinized test tubes, and centrifuged for 10 minutes at 5500 r/min. The plasma was stored at −30° C., and the rats were fed 4 hours after administration.
20 μL of sample was taken, 400 μl of acetonitrile solution of IS (5 ng·mL^−1 verapamil and 50 ng·mL^−1 glibenclamide were contained) was added, The mixture was vortexed for 1 minute, and then centrifuged for 8 minutes at 13,000r/min. After that, 70 μL of supernatant was added with 70 μL of water and vortexed for 10 minutes, and an aliquot of 10 μL of the supernatant of the mixture was analyzed in a LC-MS/MS system.
The tested compounds were administrated intragastrically to determine the content of the tested compounds in plasma of rats at different time points by LC-MS/MS method.

FGFR4 = FGFR4 (Homo sapiens (Human), UniProt P22455); settings: read-out: IC50(nM) FGFR4; recombinant human FGFR4, ATP at Km
Sequence of FGFR4 (P22455 22-802): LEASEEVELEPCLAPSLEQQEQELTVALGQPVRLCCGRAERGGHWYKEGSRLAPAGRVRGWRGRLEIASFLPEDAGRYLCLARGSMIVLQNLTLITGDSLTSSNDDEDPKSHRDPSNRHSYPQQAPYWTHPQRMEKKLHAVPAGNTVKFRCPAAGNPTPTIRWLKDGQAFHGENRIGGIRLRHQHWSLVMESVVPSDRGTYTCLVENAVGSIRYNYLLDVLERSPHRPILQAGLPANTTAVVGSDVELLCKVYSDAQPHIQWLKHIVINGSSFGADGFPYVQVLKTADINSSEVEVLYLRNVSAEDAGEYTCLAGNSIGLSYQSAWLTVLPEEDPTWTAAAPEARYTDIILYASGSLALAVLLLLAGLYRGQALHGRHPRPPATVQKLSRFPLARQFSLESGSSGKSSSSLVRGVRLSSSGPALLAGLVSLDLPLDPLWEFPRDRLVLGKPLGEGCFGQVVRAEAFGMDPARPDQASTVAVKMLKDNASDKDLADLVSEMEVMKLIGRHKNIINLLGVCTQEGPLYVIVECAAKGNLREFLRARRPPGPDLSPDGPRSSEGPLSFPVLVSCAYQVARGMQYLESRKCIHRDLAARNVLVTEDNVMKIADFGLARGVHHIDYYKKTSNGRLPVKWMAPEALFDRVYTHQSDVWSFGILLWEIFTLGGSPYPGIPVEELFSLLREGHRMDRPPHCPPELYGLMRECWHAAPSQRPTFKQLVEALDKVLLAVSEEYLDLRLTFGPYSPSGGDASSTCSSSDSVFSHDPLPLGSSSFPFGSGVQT
Protocol: This assay used Cisbio's HTRF®KinEASE-TK tyrosine kinase kit (Cat. No. 62TK0PEB), through determining the degree of phosphorylation of the biotinylated polypeptide substrate, the determination was carried out by time-resolved fluorescence energy resonance transfer method (TF-FRET).
For detailed assay, please refer to the kit instructions, the experimental procedure was summarized as follows: the compound of the present invention was first dissolved in DMSO, the solution was subjected to gradient dilution with the buffer solution provided in the kit so that the range of the final concentration of the compound to be tested in the reaction system was 10 μM to 0.1 nM, the final concentration of DMSO was 0.1%. The concentration of the tested adenosine triphosphate (ATP) was the pre-determined Km value corresponding to the ATP of each FGFR subtype. […] Subsequently, an antiphosphorylated tyrosine antibody coupled with a compound containing europium-based element and streptavidin coupled with a modified allophycocyanin XL665 were added to the reaction and the mixture was incubated continuously for 1 hour at room temperature.

FGFR3 = FGFR3 (Homo sapiens (Human), UniProt P22607); assay: FGFR kinase activity, HTRF KinEASE-TK (TF-FRET); assay type: biochemical; settings: recombinant human FGFR3, ATP at Km
Sequence of FGFR3 (P22607 23-806): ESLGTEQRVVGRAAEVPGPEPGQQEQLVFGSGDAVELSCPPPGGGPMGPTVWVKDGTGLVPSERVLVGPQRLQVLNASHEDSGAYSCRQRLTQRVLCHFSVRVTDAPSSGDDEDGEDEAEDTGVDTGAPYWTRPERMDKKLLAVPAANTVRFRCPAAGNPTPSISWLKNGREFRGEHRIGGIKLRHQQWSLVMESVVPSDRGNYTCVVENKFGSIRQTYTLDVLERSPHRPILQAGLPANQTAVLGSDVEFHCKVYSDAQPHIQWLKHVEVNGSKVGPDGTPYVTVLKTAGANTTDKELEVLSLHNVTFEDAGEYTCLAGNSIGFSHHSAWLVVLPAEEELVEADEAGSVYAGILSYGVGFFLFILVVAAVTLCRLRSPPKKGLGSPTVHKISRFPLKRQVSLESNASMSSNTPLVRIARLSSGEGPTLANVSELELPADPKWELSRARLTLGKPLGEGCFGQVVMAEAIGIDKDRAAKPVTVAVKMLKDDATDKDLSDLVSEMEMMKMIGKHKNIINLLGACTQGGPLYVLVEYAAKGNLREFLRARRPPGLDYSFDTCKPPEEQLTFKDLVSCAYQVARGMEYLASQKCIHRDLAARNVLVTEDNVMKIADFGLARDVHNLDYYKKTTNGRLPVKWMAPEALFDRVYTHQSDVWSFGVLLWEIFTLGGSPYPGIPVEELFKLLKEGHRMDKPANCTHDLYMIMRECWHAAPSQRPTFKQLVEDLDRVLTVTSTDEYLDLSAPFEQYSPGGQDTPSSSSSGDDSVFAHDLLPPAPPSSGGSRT

[7] = Pharmacokinetic tests on mice, intragastric, plasma LC/MS/MS; assay type: in vivo; settings: ICR mice, 100 mg/kg
Protocol: ICR mice were used as the test animals, and the compound of Example 1 was administrated intragastrically to mice to determine the drug concentration in plasma at different points by LC/MS/MS method. The pharmacokinetic properties of the compound of the present invention were studied in mice.
The compound of Example 1 (50.12 mg) was weighed, added with 5.012 mL of 0.5% sodium carboxymethylcellulose (CMC-Na) (0.5% Tween-20, 0.9% BeOH), vortexed for 3 minutes until a homogeneous suspension was formed;
9 healthy adult ICR mice, after an overnight fast, were administrated intragastrically at a dosage of 100 mg/kg, at a volume of […].
Blood samples were taken from orbital vein (0.08 mL) at pre administration and at 15 minutes, 30 minutes, 1 hour, 2 hours, 4 hours, 8 hours, 12 hours, 24 hours post administration. The samples were stored in heparinized test tubes and centrifuged for 10 minutes at 5500r/min, The plasma were stored at −30° C., and the mice were fed after 4 hours of administration.
10 μL of sample was taken, 100 μl of acetonitrile solution of IS (5 ng·mL^−1 verapamil and 50 ng·mL^−1 glibenclamide were contained) was added, the mixture was vortexed for 10 minutes and centrifuged for 18 minutes at 3,700r/min, After that, 40 μL of supernatant was added with 120 μL of water and vortexed for 10 minutes, and an aliquot of 10 μL of the supernatant of the mixture was analyzed in a LC-MS/MS system.
The tested compounds were administrated intragastrically to determine the content of the tested compounds in plasma of mice at different time points by LC-MS/MS method.

IC50 [1]: 20 nM
IC50 [2]: 4.5 nM
IC50 [3]: 5.6 nM
IC50 [4]: 43 nM
SMILES: CN1CC=C(c2ccc3cc(C(=O)c4cnn(-c5ccc6[nH]c(C7CC7)nc6c5)c4N)[nH]c3c2)CC1 [Example 14, (5-Amino-1-(2-cyclopropyl-1H-benzo[d]imidazol-5-yl)-1H-pyrazol-4-yl)(6-(1-methyl-1,2,3,6-tetrahydropyrid-4-yl)-1H-indol-2-yl)methanone]

SMILES: N#Cc1ccc2cc(C(=O)c3cnn(-c4ccc5[nH]c(C6CC6)nc5c4)c3N)[nH]c2c1 [Example 17, 2-(5-Amino-1-(2-cyclopropyl-1H-benzo[d]imidazol-5-yl)-1H-pyrazole-4-carbonyl)-1H-indole-6-carbonitrile]
IC50 [1]: 61 nM
IC50 [5]: 106 nM
pharmacokinetic properties (in words) [6]: good pharmacokinetic properties
AUC(0-inf) ([6]; 5 mg/kg): 10300 ± 3490 ng·h/mL
half-life ([6]; 5 mg/kg): 6.6 ± 3.2 h
Cmax ([6]; 5 mg/kg): 1040 ± 271 ng/mL
MRT ([6]; 5 mg/kg): 9.4 ± 5.2 h
IC50 [2]: 9.8 nM
IC50 [4]: 129 nM

SMILES: CCn1cc(-c2ccc3cc(C(=O)c4cnn(-c5ccc6[nH]c(C7CC7)nc6c5)c4N)[nH]c3c2)cn1 [Example 16, (5-Amino-1-(2-cyclopropyl-1H-benzo[d]imidazol-5-yl)-1H-pyrazol-4-yl)(6-(1-ethyl-1H-pyrazol-4-yl)-1H-indol-2-yl)methanone]
IC50 [1]: 40 nM
IC50 [5]: 56 nM
IC50 [2]: 11 nM
IC50 [4]: 56 nM

IC50 (FGFR4): > 10000 nM
IC50 (FGFR3): > 100 nM
SMILES: COC(=O)c1nc2cc(-n3ncc(C(=O)c4cc5ccccc5[nH]4)c3N)ccc2[nH]1 [Example 7, Methyl 5-(5-amino-4-(1H-indole-2-carbonyl)-1H-pyrazol-1-yl)-1H-benzo[d]imidazole-2-carboxylate]

SMILES: Nc1c(C(=O)c2cc3cc(F)ccc3[nH]2)cnn1-c1ccc2[nH]c(C3CC3)nc2c1 [Example 11, (5-amino-1-(2-cyclopropyl-1H-benzo[d]imidazol-5-yl)-1H-pyrazol-4-yl)(5-fluoro-1H-indol-2-yl)methanone]
IC50 [1]: 119 nM
IC50 [2]: 15 nM

SMILES: Nc1c(C(=O)c2cc3ccccc3[nH]2)cnn1-c1ccc2[nH]c(C3CC3)nc2c1 [Example 1, (5-amino-1-(2-cyclopropyl-1H-benzo[d]imidazol-5-yl)-1H-pyrazol-4-yl)(1H-indol-2-yl)methanone]
IC50 [1]: 45 nM
IC50 [5]: 11 nM
IC50 [2]: 9 nM
F % (oral availability) [7]: 63%
pharmacokinetic properties (in words) [7]: good pharmacokinetic properties
AUC(0-t) ([7]; mouse, plasma, po, read-out: Curve area AUC0-t): 150000 ng·h/mL
Cmax ([7]; mouse, plasma, po, read-out: Plasma concentration Cmax): 17400 ng/mL
IC50 [3]: 4 nM
IC50 [4]: 89 nM

SMILES: Nc1c(C(=O)c2cc3ccc(F)cc3[nH]2)cnn1-c1ccc2[nH]c(C3CC3)nc2c1 [Example 12, (5-Amino-1-(2-cyclopropyl-1H-benzo[d]imidazol-5-yl)-1H-pyrazol-4-yl)(6-fluoro-1H-indol-2-yl)methanone]
IC50 [1]: 78 nM
pharmacokinetic properties (in words) [6]: good pharmacokinetic properties
AUC(0-inf) ([6]; 3 mg/kg): 80400 ± 24600 ng·h/mL
half-life ([6]; 3 mg/kg): 5.38 ± 0.05 h
Cmax ([6]; 3 mg/kg): 5230 ± 1510 ng/mL
MRT ([6]; 3 mg/kg): 8.18 ± 0.19 h
IC50 [2]: 1.1 nM
IC50 [3]: 5 nM
IC50 [4]: 150 nM
